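Assay format: 96-well plates, 48-hour exposure. At the GI50, growth is halved.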 Calls of active or inactive are those of the source. Cut-off read from the data, not from the text of the source: active = GI50 up to about 1.1 µM and inactive = higher.
How the values were obtained:
Assay in all cases: growth of human tumour cells (NCI), 48 h
[1] = tested on: UACC-62
[2] = tested on: NCI-H522
[3] = tested on: HCC 2998
[4] = tested on: SK-OV-3
[5] = tested on: IGROV-1
[6] = tested on: MOLT-4
[7] = tested on: KM12
[8] = tested on: SF-539
[9] = tested on: SF-295
[10] = tested on: MDA-MB-231
[11] = tested on: OVCAR-5
[12] = tested on: M14
[13] = tested on: EKVX
[14] = tested on: NCI/ADR-RES
[15] = tested on: NCI-H226
[16] = tested on: SNB-75
[17] = tested on: SW-620
[18] = tested on: SNB-19
[19] = tested on: SR

Measured: GI50

Cc1cn(C2OC(CO)C(O)C2F)c(=O)[nH]c1=O (stereo unspecified)
inactive: [1] 64.3 µM | [2] 19.3 µM | [3] > 100 µM | [4] > 100 µM | [5] > 100 µM | [6] 64.3 µM | [7] > 100 µM | [8] > 100 µM | [9] > 100 µM | [10] > 100 µM | [11] > 100 µM | [12] 41.8 µM | [13] > 100 µM | [14] 64 µM | [15] > 100 µM | [16] > 100 µM | [17] > 100 µM | [18] > 100 µM

Cc1cc(N)c2cc(NC(=O)Nc3ccc4nc(C)cc(N)c4c3)ccc2n1
inactive: [1] > 100 µM | [2] > 100 µM | [3] > 100 µM | [4] > 100 µM | [5] > 100 µM | [6] > 100 µM | [7] > 100 µM | [9] 89.5 µM | [10] 47.8 µM | [11] > 100 µM | [12] > 100 µM | [13] > 100 µM | [14] > 100 µM | [15] > 100 µM | [17] > 100 µM | [18] > 100 µM

COC(=O)C(=O)C(C(=O)C(=O)Nc1ccc(Cl)c(Cl)c1)c1nc2ccc(C(=O)c3ccccc3)cc2nc1O (stereo unspecified)
inactive: [1] > 100 µM | [2] 27.7 µM | [4] 97.3 µM | [5] 33.5 µM | [6] 15 µM | [7] 29 µM | [8] 62.2 µM | [9] 49.4 µM | [10] 51.3 µM | [11] > 100 µM | [12] 67.3 µM | [13] 44.9 µM | [14] 33.6 µM | [15] 56.4 µM | [16] 28.3 µM | [17] 46.9 µM | [18] 45.6 µM

O=C1NC(Nc2ccccc2Cl)=N/C1=C\c1c(Cl)cccc1Cl
inactive: [1] 32.1 µM | [2] 18.7 µM | [3] 21.9 µM | [4] 59.8 µM | [5] 25.8 µM | [6] 27 µM | [7] 23.7 µM | [8] 51.5 µM | [9] 26.5 µM | [11] 30 µM | [12] 40.9 µM | [13] 31 µM | [14] 23.2 µM | [15] 42.5 µM | [19] 5.52 µM | [16] 24.7 µM | [17] 37.5 µM | [18] 44.1 µM

NC(=S)NC/C=C/Cl
inactive: [1] > 100 µM | [2] 86.5 µM | [4] > 100 µM | [5] > 100 µM | [6] > 100 µM | [7] > 100 µM | [9] > 100 µM | [10] > 100 µM | [11] > 100 µM | [12] > 100 µM | [13] > 100 µM | [14] > 100 µM | [15] > 100 µM | [19] > 100 µM | [16] > 100 µM | [17] > 100 µM | [18] > 100 µM

CC(C)Cn1cnnc1NS(=O)(=O)c1cc(C(=O)NN)c(Cl)cc1S
inactive: [1] > 10 µM | [2] > 10 µM | [3] > 10 µM | [4] > 10 µM | [5] > 10 µM | [6] > 10 µM | [7] > 10 µM | [8] > 10 µM | [9] > 10 µM | [10] > 10 µM | [11] > 10 µM | [12] > 10 µM | [13] > 10 µM | [14] > 10 µM | [15] > 10 µM | [16] > 10 µM | [17] > 10 µM | [18] > 10 µM

Cc1nn(C(=O)Cc2ccccc2)c2c1C(c1ccc([N+](=O)[O-])cc1)SC(=N)N2 (stereo unspecified)
inactive: [1] > 100 µM | [2] > 100 µM | [3] > 100 µM | [4] > 100 µM | [5] > 100 µM | [6] > 100 µM | [7] > 100 µM | [8] > 100 µM | [9] > 100 µM | [10] > 100 µM | [12] > 100 µM | [13] > 100 µM | [19] > 100 µM | [17] > 100 µM

COP(=O)(OC)C12CCOCCN1c1ccccc1C2=O (stereo unspecified)
inactive: [1] > 100 µM | [2] > 100 µM | [3] > 100 µM | [4] > 100 µM | [5] > 100 µM | [6] > 100 µM | [7] > 100 µM | [8] > 100 µM | [9] > 100 µM | [10] > 100 µM | [11] > 100 µM | [12] > 100 µM | [13] > 100 µM | [14] > 100 µM | [15] > 100 µM | [16] > 100 µM | [17] > 100 µM | [18] > 100 µM

COc1c(F)c(F)c(C(=O)/C=C2\Nc3ccccc3NC2=O)c(F)c1F
inactive: [1] > 10 µM | [3] > 10 µM | [4] 4.57 µM | [5] 7.33 µM | [6] > 10 µM | [7] 8.22 µM | [9] 5.52 µM | [10] > 10 µM | [12] > 10 µM | [13] > 10 µM | [19] > 10 µM | [16] 2.25 µM | [17] 8.38 µM

COc1ccc2c(c1)C(=O)OCCC2
inactive: [1] > 100 µM | [2] > 100 µM | [3] > 100 µM | [4] > 100 µM | [5] > 100 µM | [6] > 100 µM | [7] > 100 µM | [8] > 100 µM | [9] > 100 µM | [10] > 100 µM | [11] > 100 µM | [12] > 100 µM | [13] > 100 µM | [14] > 100 µM | [15] > 100 µM | [16] 54 µM | [17] > 100 µM | [18] > 100 µM

COc1cc(S(=O)(=O)Nc2ccc(-c3csc(/N=C\C=C\c4ccccc4)n3)cc2)ccc1Cl
inactive: [1] 37.9 µM | [2] 24.5 µM | [3] > 100 µM | [4] > 100 µM | [5] 39.4 µM | [6] 38.1 µM | [7] 84.5 µM | [8] 22 µM | [9] 74.5 µM | [11] > 100 µM | [12] 29.9 µM | [13] 36.9 µM | [14] 59 µM | [15] 24.2 µM | [19] 32.5 µM | [16] > 100 µM | [17] > 100 µM | [18] 84.3 µM

CCOc1cc(NC(C)=O)ccc1C(=O)NNS(=O)(=O)c1ccc(Cl)cc1Cl
inactive: [1] > 50 µM | [2] > 50 µM | [3] > 50 µM | [4] > 50 µM | [5] > 50 µM | [6] 8.75 µM | [7] 31.5 µM | [8] > 50 µM | [9] > 50 µM | [11] > 50 µM | [12] > 50 µM | [13] > 50 µM | [14] > 50 µM | [15] > 50 µM | [19] 13.9 µM | [16] > 50 µM | [17] > 50 µM | [18] > 50 µM

CCOC(=O)c1c(SC)nc(-c2ccc(Cl)cc2)sc1=N.[O-][Cl+3]([O-])([O-])O
inactive: [1] 30.8 µM | [3] 22.7 µM | [4] 37.2 µM | [5] 20.8 µM | [6] 26.4 µM | [7] 30.8 µM | [8] 32.1 µM | [9] 28.2 µM | [10] 41.7 µM | [11] 59.2 µM | [12] 45.4 µM | [13] 22 µM | [14] 23.7 µM | [15] 25.9 µM | [16] 25.1 µM | [17] 48 µM | [18] 94.4 µM

O=C1C(=C/C=C2/SC(c3ccccc3)(c3ccccc3)c3ccccc32)C(=O)c2ccccc21
inactive: [1] > 100 µM | [2] > 100 µM | [3] > 100 µM | [4] > 100 µM | [5] > 100 µM | [6] > 100 µM | [7] > 100 µM | [8] > 100 µM | [9] > 100 µM | [10] > 100 µM | [11] > 100 µM | [12] > 100 µM | [13] > 100 µM | [14] > 100 µM | [15] > 100 µM | [16] > 100 µM | [17] > 100 µM | [18] > 100 µM

c1ccc(/N=C2/SC(c3ccccc3)(c3ccccc3)c3ccccc32)cc1
inactive: [1] > 100 µM | [2] > 100 µM | [3] > 100 µM | [4] > 100 µM | [5] > 100 µM | [6] > 100 µM | [7] > 100 µM | [8] > 100 µM | [9] > 100 µM | [10] > 100 µM | [11] > 100 µM | [12] > 100 µM | [13] > 100 µM | [14] > 100 µM | [15] > 100 µM | [16] > 100 µM | [17] > 100 µM | [18] > 100 µM

O=[N+]([O-])c1ccc(/N=N/c2c(O)ccc3cc(S(=O)(=O)O)ccc23)cc1
inactive: [1] > 100 µM | [2] > 100 µM | [4] > 100 µM | [5] > 100 µM | [6] > 100 µM | [7] > 100 µM | [9] > 100 µM | [10] > 100 µM | [11] > 100 µM | [12] > 100 µM | [13] > 100 µM | [14] > 100 µM | [16] > 100 µM | [17] > 100 µM | [18] > 100 µM

Reference: ChEMBL document CHEMBL1201862, “PubChem BioAssay data set” (2004)
